Test results reported in patent US5494913A, “Antifungal compounds” (Schering Corporation, priority 1994, dated 1996).
Converted amounts (≈) assume the structure as drawn.

Columns and labels:
Other Candida = assay: In vitro antifungal MIC in SDB (pH 5.7), other Candida; assay type: cell-based; conditions: 6 strains; for MIC: 48/72 hr, read-out: Geometric means MICs, 48/72 hr
Protocol: (§1) Compounds A and B of the invention were tested in standard antifungal assays and data from these tests appear in the Table 13 just below.
(§2) In vitro activity of compounds
(§3) A and B and Albofungin against various fungi
(§4) Geometric means MICs μg/ml, 48/72 hr)
(§5) SDB means Sabourand dextrose broth, pH 5.7;

[1] = tested on: various yeasts and dermatophytes; assay: Antifungal MIC against various yeasts and dermatophytes (summary statement); assay type: cell-based; conditions: read-out: MIC values
Protocol: as §1

[2] = tested on: C. albicans & C. tropicalis; assay: In vitro antifungal MIC in EMEM (pH 7.0), C. albicans & C. tropicalis; assay type: cell-based; conditions: 9 strains; for MIC: 48/72 hr, read-out: Geometric means MICs, 48/72 hr
Protocol: as §1, §2, §3, §4
EMEM means Eagle's minimum essential medium, pH 7.0.

[3] = tested on: C. albicans & C. tropicalis; assay: In vitro antifungal MIC in SDB (pH 5.7), C. albicans & C. tropicalis; assay type: cell-based; conditions: 8 strains; for MIC: 48/72 hr, read-out: Geometric means MICs, 48/72 hr
Protocol: as §1, §2, §3, §4, §5

In vivo LD50, iv = conditions: mpk means mg. per kg., range for compounds A and B, printed with "about"
Dermatophytes = assay: In vitro antifungal MIC in SDB (pH 5.7), dermatophytes; assay type: cell-based; conditions: 5 strains; for MIC: 48/72 hr, read-out: Geometric means MICs, 48/72 hr
Protocol: as §1, §2, §3, §4, §5

Aspergillus = assay: In vitro antifungal MIC in SDB (pH 5.7), Aspergillus; assay type: cell-based; conditions: 3 strains; for MIC: 48/72 hr, read-out: Geometric means MICs, 48/72 hr
Protocol: as §1, §2, §3, §4, §5

Molecule	MIC (Other Candida) [µg/mL]	MIC [1] [µg/mL]	MIC [2] [µg/mL]	MIC [3] [µg/mL]	LD50 (In vivo LD50, iv) [mg/kg]	MIC (Dermatophytes) [µg/mL]	MIC (Aspergillus) [µg/mL]	Geometric means MICs, 48/72 hr (Other Candida) [µg/mL]	Geometric means MICs, 48/72 hr [2] [µg/mL]	Geometric means MICs, 48/72 hr [3] [µg/mL]	Geometric means MICs, 48/72 hr (Dermatophytes) [µg/mL]	Geometric means MICs, 48/72 hr (Aspergillus) [µg/mL]
CCC(C)c1cc2c(Cl)c3c(c(O)c2c(=O)n1N)-c1c(O)c2c(c4c1C(C3)OCO4)OC1C(OC)C=CC(O)C1C2=O (stereo not drawn) [Compound A]	< 0.00128	≤ 0.000386	< 2.16	< 0.000386	1 to 25	0.00764 (≈ 0.0128 µM)	0.0248 (≈ 0.0415 µM)	–	–	–	–	–
CCC(C)c1cc2cc3c(c(O)c2c(=O)n1C)-c1c(O)c2c(c(OC)c1CC3)O[C@H]1[C@@H](C2=O)[C@@H](O)C=C[C@H]1O (stereo partly drawn) [Compound B]	0.0312 (≈ 0.0585 µM)	–	< 0.135	0.017 (≈ 0.0319 µM)	1 to 25	0.144 (≈ 0.269 µM)	0.794 (≈ 1.49 µM)	–	–	–	–	–
Albofungin [reference compound]	–	–	–	–	–	–	–	< 0.00099	< 0.0182	< 0.00055	0.0359	0.125
